Test results published in patent US20040087842A1, “Fluorescent probes for saccharrides” (priority 2002, published 2004).
Like-named read-outs stand apart in the source and are kept apart here.

How the values were obtained:
[1] = Fluorescence titration curves against sugar (dissociation constant), D-glucose; assay type: binding
Method: (§1) Stilbene-4-boronic acid (STBA), 4′-cyanostilbene-4-boronic acid (CSTBA), 4′-methoxystilbene-4-boronic acid (MSTBA) and 4′-(dimethylamino)stilbene-4-boronic acid (DSTBA) were synthesized by the Wittig reaction between the para-substituted benzaldehydes and the para-boronic acid derivative of the benzyltriphenylphosphonium bromide. This latter was synthesized by the reaction of the p-bromomethylphenylboronic acid with triphenylphosphine in toluene. […] Absorption spectrawere recorded with a Cary 50 UV-Vis spectrophotometer from Varian. Emission spectra were recorded with a Varian Eclipse spectrofluorometer from Varian. In both cases, the measurements were taken at room temperature in a 1 cm quartz cuvette. For all measurements, the absorbances of the solutions were about 0.1 corresponding to a concentration range of 2-3×10^−6 M of the fluorophore. Fluorescence quantum yields were measured against p-quaterphenyl in cyclohexane (ΦF=0.89) for trans-stilbene (ST) and STBA, anthracene in cyclohexane (φF=0.36) for CSTBA and MSTBA and Quinine sulfate in 1N sulfuric acid (ΦF=0.577) for DSTBA.
(§2) where Iacid and Ibase are the intensity limits in the acid and basic region, respectively. Titration curves against sugar were fitted and dissociation constant (KD) values were obtained using the equation: [formula]
(§3) where Io and If are the initial (no sugar) and final (plateau) intensities of the titration curves. […]

[2] = Fluorescence titration curves against sugar (dissociation constant), D-fructose; assay type: binding
Method: as §1, §2
(§4) where Io and If are the initial (no sugar) and final (plateau) intensities of the titration curves. All solutions in water and buffer contained also 33.3% […] methanol to avoid any problem due to the aggregation.

[3] = Fluorescence titration curves against sugar (dissociation constant), D-galactose; assay type: binding
Method: as §1, §2, §4

[4] = Titration curves against pH (pKa of the boronic acid group) with and without sugar; assay type: physicochemical; details: for pKa: aqueous buffer solutions with methanol
Method: Titration curves against pH were measured in buffer solutions: acetate buffer for pH 4.0-5.5, phosphate buffer for pH 6.0-9.0 and carbonate buffer for pH 10,0-11.0. Titration curves were fitted and pKa (pKa=−log Ka) values were obtained using the equation: [formula]
as §2, §3

[5] = DSTBA, from reference 3; read-out: KD fructose; cited from earlier work
[6] = DSTBA, from reference 3; read-out: KD glucose; cited from earlier work
[7] = DSTBA, from reference 3; read-out: KD galactose; cited from earlier work
[8] = Emission intensity change of STBA after addition of sugars; details: phosphate buffer pH 8.0/methanol 2:1 (v/v), λex=310 nm
Excerpt: A decrease of the fluorescence emission is observed after the addition of sugar. The overall decrease is relatively weak, about 15%. Since the same intensity change is observed by increasing the pH, this change is attributed to the formation of the anionic form of the boronic acid group. […] The decrease of this pKa for the complex with sugar is also a general observation for this chelator group. […] At pH 8.0, STBA is present mostly in its neutral form. After the addition of sugar, the complex exists under the anionic form due to its lower pKa. This change from the neutral to the anionic form is at the origin of the intensity changes observed for STBA and the other complexes presented in this study. […]
Stilbene-4-boronic acid (STBA), 4′-cyanostilbene-4-boronic acid (CSTBA), 4′-methoxystilbene-4-boronic acid (MSTBA) and 4′-(dimethylamino)stilbene-4-boronic acid (DSTBA) were synthesized by the Wittig reaction between the para-substituted benzaldehydes and the para-boronic acid derivative of the benzyltriphenylphosphonium bromide. […] Absorption spectrawere recorded with a Cary 50 UV-Vis spectrophotometer from Varian. Emission spectra were recorded with a Varian Eclipse spectrofluorometer from Varian. […] For all measurements, the absorbances of the solutions were about 0.1 corresponding to a concentration range of 2-3×10^−6 M of the fluorophore. […]

[9] = cited from earlier work
[10] = cited from earlier work; for decrease of emission intensity after addition of glucose: pH 7.4, literature
[11] = Yoon et al., cited from earlier work
[12] = Fluorescence titration curves against sugar (dissociation constant), D-fructose; assay type: binding; details: compounds 4 and 5; phosphate buffer pH 8.0/methanol 1:2 (v/v)
[13] = Solubility observation during titrations; assay type: physicochemical; details: methanol/water mixture
Excerpt: (§5) As discussed in the literature, the change is the intensity is attributed to the removal of the PET quenching due to the interaction between the boron and nitrogen atoms following the binding with glucose. In attempt to see the possible interference from macrobiosystems, titration curves have also been measured in presence of BSA and two detergents, one with a […] charged head group (HDTBr) and the other with a […] charged head group (SDS). BSA has a little effect on the titration curve of 7 and no effect for compound 8. The effect of BSA one compound 7 could be the result of an interaction between these two compounds. But, as the measurements are taken in a mixture of methanol and water, aggregation could not be neglect. […] To obtain a reproducible titration curve, vigorous stirring and time must be applied. In the presence of micelles, a complete inhibition of the intensity change is observed. […] For compound, the dissociation constant is in the millimolar range which is characteristic with the boronic acid group. For compound 8, this dissociation constant goes down to submillimolar range. This is due to the ability of both boronic acid group present on compound 8 to bind one molecule of glucose.

[14] = Stability and dissociation constants of 7 and 8 for D-glucose from steady-state and frequency-domain fluorescence; assay type: binding; details: 1:1 complex with D-glucose, methanol/phosphate buffer pH 7.7 (1:3)
Excerpt: as §5
Titration curves obtain with the mean lifetime and with the phase angle and modulation are shown in FIGS. 24 and 25 respectively for both compounds. […] This is due to the fact that the short lifetime component becomes less important and gradually the decay become more monoexponential with the addition of glucose. For compound 8, the combination of larger mean lifetime change and decrease of the short lifetime component result in a larger change in the phase angle and modulation with the presence of glucose. The apparent association constants obtained with the mean lifetime, phase angle and modulation show a decrease of an order in comparison with the KD obtained with the steady-state intensity change. […] This is due to the more important contribution of the complex (probe with analyte) on the lifetime because of the higher quantum yield and longer lifetime of the latter.
Steady-state fluorescence measurements were performed in 1 cm quartz cuvette in an ISS spectrofluorometer.
Frequency-domain (FD) measurements were performed using instrumentation described previously (65). The Domain (TD measurements can also be applied to the fluorescent compounds and methods of the present invention, as readily recognized by those of ordinary skill in the art. For Example 4, an amplitude modulated UV-LED was use as light source given and peak intensity centered around 370 nm. Emission was observed through a 415 nm cut-off and a 420 nm interference filter. The FD or TD intensity decay data were analyzed by nonlinear least squares in terms of the multiexponential model: [formula]
The values of (τ) are thought to be proportional to the quantum yield of the sample. […] Stability and association constants are determined according to the method described in the literature.

[15] = literature value; read-out: KD D-galactose; cited from earlier work
[16] = stilbenes, pH 8.0, 33.3% methanol, read-out: KD D-glucose
[17] = stilbenes, pH 8.0, 33.3% methanol, read-out: KD D-fructose
[18] = stilbenes, pH 8.0, 33.3% methanol, read-out: KD D-galactose
[19] = stilbenes, 33.3% methanol, 50 mM D-fructose, read-out: pKa +D-fructose (50 mM)
[20] = stilbenes, 33.3% methanol, 50 mM D-glucose, read-out: pKa +D-glucose (50 mM)
[21] = stilbenes, solution contained 33.3% methanol, no sugar, read-out: pKa Alone
[22] = compounds 4 and 5, phosphate buffer pH 8.0/methanol 1:2 (v/v), read-out: KD glucose
[23] = compounds 4 and 5, phosphate buffer pH 8.0/methanol 1:2 (v/v), read-out: KD galactose
[24] = compounds 4 and 5, 66.6% methanol, 50 mM fructose, read-out: pKa fructose (50 mM)
[25] = compounds 4 and 5, 66.6% methanol, 170 mM glucose, read-out: pKa glucose (170 mM)
[26] = compounds 4 and 5, buffer with 66.6% (v/v) methanol, read-out: pKa no sugar
[27] = compound 6, pH 7.0, phosphate buffer/methanol 2:1
[28] = 30 MHz, read-out: KD, Modulation
[29] = 30 MHz, read-out: KD, Phase Angle
[30] = read-out: KD, Steady State Intensity

In the case of `N#Cc1ccc(/C=C/c2ccc(B(O)O)cc2)cc1` [CSTBA, 4′-cyanostilbene-4-boronic acid], the Kd [1, 16] is reported as 18.3 mM, the Kd ([2]; pH 7.0, read-out: dissociation constant for D-fructose) is reported as 3.22 mM and the Kd ([2]; pH 7.5, read-out: dissociation constant for D-fructose) is reported as 1.19 mM. For the same compound, the Kd [2, 17] was 0.65 mM, the Kd [3, 18] was 12.5 mM and the pKa [4, 19] was 5.84. The pKa [4, 20] was 7.3 and the pKa [4, 21] was 8.17.
`CN(C)c1ccc(/C=C/c2ccc(B(O)O)cc2)cc1` [DSTBA, 4′-(dimethylamino)stilbene-4-boronic acid] showed a Kd [1, 16] of 98 mM, a Kd [2, 17] of 2.5 mM and a Kd [3, 18] of 49 mM. It also gave a pKa [4, 19] of 6.61, a pKa [4, 20] of 8.34 and a pKa [4, 21] of 9.14. The Kd [5] was 2.5 mM, the Kd [6] was 98 mM and the Kd [7] was 49 mM.
`COc1ccc(/C=C/c2ccc(B(O)O)cc2)cc1` [MSTBA, 4′-methoxystilbene-4-boronic acid] gave a Kd [1, 16] of 43 mM, a Kd [2, 17] of 1 mM and a Kd [3, 18] of 26 mM. The pKa [4, 19] was 6.36, the pKa [4, 20] was 7.88 and the pKa [4, 21] was 8.58.
`OB(O)c1ccc(/C=C/c2ccccc2)cc1` [STBA, stilbene-4-boronic acid] gave a Kd [1, 16] of 11 mM, a Kd [2, 17] of 3.4 mM and a Kd [3, 18] of 6 mM. It also gave a pKa [4, 19] of 6.4, a pKa [4, 20] of 7.63 and a pKa [4, 21] of 8.86. The “overall decrease of the fluorescence emission after addition of sugar” value [8] was “about 15%”.
In the case of `OB(O)c1ccc2cc3ccccc3cc2c1` [anthrylboronic acid, anthryl-2-boronic acid], the “decrease of emission intensity after addition of fructose” value ([9]; pH 7.4, literature) is given as 30%, the “decrease of emission intensity after addition of glucose” value [10] is given as “about 10%” and the “decrease of emission intensity after addition of glucose” value ([10]; listed as anthryl-2-boronic acid) is given as 10%. For the same compound, the “pKa of complex with fructose” value ([11]; saturated fructose solution) was 5.9 and the pKa ([11]; uncomplexed) was 8.8.
In the case of `CN(C)c1ccc(/C=C/C=C/c2ccc(B(O)O)cc2)cc1` [compound 4, 1-(p-Dimethylaminophenyl)-4-(p-boronophenyl)-buta-1,3-diene], the Kd [1, 22] is reported as 17 ± 2 mM, the Kd [3, 23] is reported as 5.9 ± 0.6 mM and the pKa [4, 24] is reported as 6.19 ± 0.04. The pKa [4, 25] was 6.97 ± 0.02, the pKa [4, 26] was 8.9 and the Kd [12] was 1.12 ± 0.05 mM.
In the case of `CN(C)c1ccc(/C=C/C=C/C=C/c2ccc(B(O)O)cc2)cc1` [compound 5, 1-(p-dimethylaminophenyl)-6-(p-boronophenyl)-hexa-1,3,5-triene], the Kd [1, 22] is reported as 15 ± 1 mM, the Kd [3, 23] is reported as 5.4 ± 0.4 mM and the pKa [4, 24] is reported as 6.1 ± 0.05. For the same compound, the pKa [4, 25] was 6.86 ± 0.02, the pKa [4, 26] was 8.75 and the Kd [12] was 0.84 ± 0.03 mM.
For `CN(C)c1ccc(-c2cnc(-c3ccc(B(O)O)cc3)o2)cc1` [compound 6, 5-(4′-Dimethylaminophenyl)-2-(4″-boronophenyl)oxazol], the “increase of the emission intensity in presence of glucose” value [1, 27] was “about 3 fold”, the Kd ([1]; compound 6, phosphate buffer/methanol (2:1 v/v) at pH 7.0, read-out: Dissociation constant (KD) for glucose) was 37 ± 3 mM and the “increase of the emission intensity in presence of fructose” value [2, 27] was “about 5 fold”. For the same compound, the Kd ([2]; compound 6, phosphate buffer/methanol (2:1 v/v) at pH 7.0, read-out: Dissociation constant (KD) for fructose) was 1.9 ± 0.1 mM, the “increase of the emission intensity in presence of galactose” value [3, 27] was “about 3 fold” and the Kd ([3]; compound 6, phosphate buffer/methanol (2:1 v/v) at pH 7.0, read-out: Dissociation constant (KD) for galactose) was 14 ± 1 mM. The “pKa in presence of fructose” value ([4]; compound 6) was 5.6, the “pKa in presence of glucose” value ([4]; compound 6) was 6.5 and the “pKa in absence of sugar” value ([4]; compound 6, λex=350 nm) was 7.8.
In the case of `CN(Cc1ccccc1B(O)O)Cc1c2ccccc2cc2ccccc12` [compound 7, 9-[[N-Methyl-N-(o-boronobenzyl)amino]methyl]anthracene], the solubility [13] is reported as “relatively low solubility”, the “Log KS, Mean Lifetime” value [14] is reported as 2.5 (0.994:4) and the “Log KS, Steady State Intensity” value [14] is reported as 1.7 (0.993:7). For the same compound, the “Log KS, Modulation” value ([14]; 30 MHz) was 2.5 (0.999:6), the “Log KS, Phase Angle” value ([14]; 30 MHz) was 2.2 (0.993:5) and the Kd [14, 28] was 3.4 mM. The Kd [14, 29] was 6.1 mM, the Kd ([14]; read-out: KD, Mean Lifetime) was 3.2 mM and the Kd [14, 30] was 19.3 mM.
With `CN(Cc1ccccc1B(O)O)Cc1c2ccccc2c(CN(C)Cc2ccccc2B(O)O)c2ccccc12` [compound 8, 9,10-Bis[[N-methyl-N-(o-boronobenzyl)amino]methyl]anthracene] the solubility [13] was “relatively low solubility”, the “Log KS, Mean Lifetime” value [14] was 4.4 (0.992:11) and the “Log KS, Steady State Intensity” value [14] was 3.1 (0.998:12). For the same compound, the “Log KS, Modulation” value ([14]; 30 MHz) was 4.1 (0.995:7), the “Log KS, Phase Angle” value ([14]; 30 MHz) was 4.5 (0.996:10) and the Kd [14, 28] was 0.079 mM. The Kd [14, 29] was 0.032 mM, the Kd ([14]; read-out: KD, Mean Lifetime) was 0.04 mM and the Kd [14, 30] was 0.79 mM.
In the case of `OB(O)c1ccccc1` [phenylboronic acid], the Kd ([9]; literature value, read-out: KD D-fructose) is listed as 0.2 mM, the Kd ([10]; literature value, read-out: KD D-glucose) is listed as 9.1 mM and the Kd [15] is listed as 3.6 mM.
